Measurements reported in patent publication US12686674B2, “Crystal form of compound represented by formula I, and preparation therefor and application thereof” (Shanghai Zhimeng Biopharma, Inc., priority 2021, dated 2026).
Values after ≈ are worked out from the molar mass of the structure shown.

Legend:
Assay type in all cases: physicochemical
[1] = Solid-state stability, placed open one and two weeks (HPLC purity, XRPD)
Method: Purity tests (HPLC) and crystal form detection (XRPD) were performed on starting samples, samples stored for one week and two weeks.

[2] = Influencing factor test of crystal form A (high temperature, high humidity, light); settings: High temperature (60° C.), Day 30
[3] = Rough solubility at room temperature
Method: Specifically, ~2 mg of the starting material was weighed in an HPLC vial, the solvents in the following table were added step by step (50/50/200/700 μL) until the solid is completely dissolved or the total volume reaches 1.0 mL.

[4] = Hygroscopicity by DVS at 25° C.
Method: Hygroscopicity data of samples were collected using an ADVENTURE series dynamic vapor phase adsorption system (DVS) under N2 protection. Sample dosage ~30 mg. The testing method for anhydrous crystal form is as follows: • 1) Relative humidity increase process: 0% RH to 90% RH at a rate of 10% RH/stage; 90% RH to 95% RH at a rate of 5% RH/stage; • 2) Relative humidity reduction process: 95% RH to 90% RH at a rate of 5% RH/stage; 90% RH to 5% RH at a rate of 10% RH/stage. H Nuclear Magnetic Resonance Spectroscopy (H-NMR)

For `O=C1CO[C@H](c2cn(-c3ccc(Br)cc3)nc2-c2ccc(F)cc2)N1CCc1ccc2[nH]c(=O)[nH]c2c1` [Crystal form A], the “Purity(Area %)” value ([1]; 1 week, 25° C./60% RH, open) was 99.08 Area %, the “Purity(Area %)” value ([1]; 1 week, 40° C./75% RH, open) was 99.07 Area % and the “Purity(Area %)” value ([1]; 1 week, 60° C., open) was 99.09 Area %. For the same compound, the “change in Crystal form (XRPD)” value ([1]; 1 week, 25° C./60% RH, 40° C./75% RH, 60° C.) was “Unchanged”, the “Purity(Area %)” value ([1]; 2 week, 25° C./60% RH, open) was 99.12 Area % and the “Purity(Area %)” value ([1]; 2 week, 40° C./75% RH, open) was 99.14 Area %. The “Purity(Area %)” value ([1]; 2 week, 60° C., open) was 99.13 Area %, the “change in Crystal form (XRPD)” value ([1]; 2 week, 25° C./60% RH, 40° C./75% RH, 60° C.) was “Unchanged” and the “Purity(Area %)” value ([1]; Starting sample) was 99.12 Area %. The “Moisture (KF)” value [2] was 0.09%, the solubility ([3]; organic solvent or mixture, thermodynamic from solid, 1,4-Dioxane) was 6900 to 20700 µg/mL (≈ 12.3 to 36.8 mM) and the solubility ([3]; organic solvent or mixture, thermodynamic from solid, 2-MeTHF) was 6900 to 20700 µg/mL (≈ 12.3 to 36.8 mM). For the same compound, the solubility ([3]; organic solvent or mixture, thermodynamic from solid, ACN) was < 2100 µg/mL, the solubility ([3]; organic solvent or mixture, thermodynamic from solid, Acetone) was 6800 to 20300 µg/mL (≈ 12.1 to 36.1 mM) and the solubility ([3]; organic solvent or mixture, thermodynamic from solid, CH3COOH) was > 41800 µg/mL. The solubility ([3]; organic solvent or mixture, thermodynamic from solid, CPME) was < 2000 µg/mL, the solubility ([3]; organic solvent or mixture, thermodynamic from solid, DCM) was < 2100 µg/mL and the solubility ([3]; organic solvent or mixture, thermodynamic from solid, DMF) was > 41200 µg/mL. The solubility ([3]; organic solvent or mixture, thermodynamic from solid, DMSO) was > 40400 µg/mL, the solubility ([3]; organic solvent or mixture, thermodynamic from solid, EtOAc) was < 2100 µg/mL and the solubility ([3]; organic solvent or mixture, thermodynamic from solid, EtOH) was 2000 to 6700 µg/mL (≈ 3.56 to 11.9 mM). For the same compound, the solubility ([3]; organic solvent or mixture, thermodynamic from solid, IPA) was < 2100 µg/mL, the solubility ([3]; organic solvent or mixture, thermodynamic from solid, IPAc) was < 2000 µg/mL and the solubility ([3]; organic solvent or mixture, thermodynamic from solid, MEK) was 2000 to 6600 µg/mL (≈ 3.56 to 11.7 mM). For the same compound, the solubility ([3]; organic solvent or mixture, thermodynamic from solid, MIBK) was < 2000 µg/mL, the solubility ([3]; organic solvent or mixture, thermodynamic from solid, MTBE) was < 2000 µg/mL and the solubility ([3]; organic solvent or mixture, thermodynamic from solid, MeOH) was 2000 to 6600 µg/mL (≈ 3.56 to 11.7 mM). The solubility ([3]; organic solvent or mixture, thermodynamic from solid, THF) was > 40400 µg/mL, the solubility ([3]; organic solvent or mixture, thermodynamic from solid, Toluene) was < 2000 µg/mL and the solubility ([3]; organic solvent or mixture, thermodynamic from solid, n-Heptane) was < 2000 µg/mL. The solubility ([3]; water, thermodynamic from solid, H2O) was < 2100 µg/mL, the hygroscopicity ([4]; DVS at 25° C.) was “hardly hygroscopic” and the “weight gain (DVS)” value ([4]; at 80% RH, 25° C.) was 0.14%. The “crystal form after DVS testing (XRPD)” value ([4]; before and after DVS test) was “unchanged”.
